Measurements as given in patent publication US12419869B2, “Methods of treating multiple sclerosis” (Vanda Pharmaceuticals Inc., priority 2021, dated 2025).

Tests used:
Type in all cases: in vivo, human
[1] = tested on: adult subjects with relapsing MS; experiment: Pulmonary function (percent predicted FEV1), Study 1
Description: In Study 1, the reduction from baseline in percent predicted FEV1 at 2 years was 8.3% in PONVORY-treated patients compared to 4.4% in patients receiving teriflunomide 14 mg. In Study 1, 7 patients discontinued PONVORY because of pulmonary adverse events. There is insufficient information to determine the reversibility of the decrease in FEV1 or FVC after treatment discontinuation. PONVORY should be used with caution in patients with severe respiratory disease (i.e., pulmonary fibrosis, asthma, and chronic obstructive pulmonary disease). Spirometric evaluation of respiratory function should be performed during therapy with PONVORY if clinically indicated.

[2] = tested on: adult subjects with relapsing MS; experiment: EDSS, time to first 12-week / 24-week confirmed disability accumulation (CDA)
Source text: (§1) A 12-week CDA is an increase of at least 1.5 in EDSS for subjects with a baseline EDSS score of 0.0 or an increase of at least 1.0 in EDSS for subjects with a baseline EDSS score of 1.0 to 5.0, or an increase of at least 0.5 in EDSS for subjects with a baseline EDSS score≥5.5 which is to be confirmed after 12 weeks.
All EDSS measurements (with or without relapse, at a scheduled or unscheduled visit) were used to determine the onset of disability accumulation. However, EDSS scores used for confirmation of disability accumulation were obtained at a scheduled visit (i.e., unscheduled visits cannot be used as confirmatory visits) outside any ongoing relapse. In this context, relapse duration is defined as period between start and end dates if available and limited to 90 days from onset if end date is not available or duration is longer than 90 days.
In order to confirm that the EDSS increase is persistent, all EDSS measurements between the onset and the 12-week EDSS confirmation (minus 7-day visit time-window) need to show an increase in EDSS, meeting the criteria for accumulation of disability as defined above.
as §1, with “24-week” for “12-week”, “24” for “12”
The primary endpoint was the annualized relapse rate (ARR) over the study period. Additional outcome measures included: 1) the number of new Gd-enhancing T1 lesions from baseline to Week 108, 2) the number of new or enlarging T2 lesions (without double-counting of lesions) from baseline to Week 108, and 3) the time to 3-month and 6-month confirmed disability progression. A confirmed disability progression was defined as an increase of at least 1.5 in EDSS for patients with a baseline EDSS score of 0, an increase of at least 1.0 in EDSS for patients with a baseline EDSS score of 1.0 to 5.0, or an increase of at least 0.5 in EDSS for patients with a baseline EDSS score at least 5.5, which was confirmed after 3 months and 6 months.

[3] = tested on: adult subjects with relapsing MS; experiment: Treatment-emergent adverse events and premature treatment discontinuation, phase III study (Study 1)
Description: A total of 1438 MS patients have received PONVORY at doses of at least 2 mg daily. These patients were included in Study 1 (2-year active-controlled versus teriflunomide 14 mg) [see Clinical Studies (14)] and in a Phase 2 (6-month placebo-controlled) study in patients with MS and the uncontrolled extension studies.

C/C(O)=C(\C#N)C(=O)Nc1ccc(C(F)(F)F)cc1 [Teriflunomide, reference compound]
Reduction from baseline in percent predicted FEV1 at 2 years [1]: 4.4%
Proportion of Patients with 3-month Confirmed Disability Progression ([2]; Kaplan-Meier estimates at Week 108): 13.2%
Subjects with 24-week CDA ([2]; up to EOS): 9.9%
Discontinuation reason: Death ([3]; Safety Set): (0.4) %
Subjects who prematurely discontinued study treatment ([3]; Safety Set): (16.4) %
Subjects with at least one Fatal AE ([3]; Safety Set): (0.4) %
Day 1 AESI Electrocardiogram QT prolonged ([3]; human, in vivo): (0.2) %
Day 1 AESI Presyncope ([3]; human, in vivo): (02) %
AE leading to discontinuation, SOC Blood and lymphatic system disorders ([3]; human, in vivo, 2 year): (0.4) %
AE leading to discontinuation, SOC Cardiac disorders ([3]; human, in vivo, 2 year): (0.4) %
AE leading to discontinuation, SOC Gastrointestinal disorders ([3]; human, in vivo, 2 year): (0.7) %
AE leading to discontinuation, SOC General disorders and administration site conditions ([3]; human, in vivo, 2 year): (0.4) %
AE leading to discontinuation, SOC Hepatobiliary disorders ([3]; human, in vivo, 2 year): (0.4) %
AE leading to discontinuation, SOC Investigations ([3]; human, in vivo, 2 year): (1.8) %
AE leading to discontinuation, SOC Musculoskeletal and connective tissue disorders ([3]; human, in vivo, 2 year): (0.2) %
AE leading to discontinuation, SOC Neoplasms benign, malignant and unspecified (incl cysts and polyps) ([3]; human, in vivo, 2 year): (0.2) %
AE leading to discontinuation, SOC Nervous system disorders ([3]; human, in vivo, 2 year): (0.7) %
AE leading to discontinuation, SOC Pregnancy, puerperium and perinatal conditions ([3]; human, in vivo, 2 year): (0.5) %
AE leading to discontinuation, SOC Psychiatric disorders ([3]; human, in vivo, 2 year): (0.2) %
AE leading to discontinuation, SOC Reproductive system and breast disorders ([3]; human, in vivo, 2 year): (0.2) %
AE leading to discontinuation, SOC Skin and subcutaneous tissue disorders ([3]; human, in vivo, 2 year): (0.4) %
AE leading to discontinuation, SOC Social circumstances ([3]; human, in vivo, 2 year): (0.2) %
AE leading to discontinuation, SOC Surgical and medical procedures ([3]; human, in vivo, 2 year): (0.2) %
AESI Effect on heart rate and rhythm (including hypotension) ([3]; human, in vivo, 2 year): (4.2) %
AESI Macular edema ([3]; human, in vivo, 2 year): (0.2) %
AESI Non-skin malignancy ([3]; human, in vivo, 2 year): (0.2) %
AESI Skin malignancy ([3]; human, in vivo, 2 year): (0.2) %
Discontinuation reason: Physician decision, Adverse event ([3]; human, in vivo, 2 year): (1.6) %
Discontinuation reason: Pre-specified study treatment discontinuation criteria ([3]; human, in vivo, 2 year): (2.8) %
Discontinuation reason: Subject decision, Tolerability related ([3]; human, in vivo, 2 year): (0.9) %
Incidence of basal cell carcinoma ([3]; human, in vivo, 2 year): 0.2%
Overall rate of infections ([3]; human, in vivo, 2 year): 52.1%
Subjects discontinued due to AEs or tolerability related reasons ([3]; human, in vivo, 2 year): 2.5%
Subjects with at least one Drug-Related AE ([3]; human, in vivo, 2 year): (42.0) %
Subjects with at least one Severe AE ([3]; human, in vivo, 2 year): (4.6) %
TEAE ALT increased ([3]; human, in vivo, 2 year): 9.4%
TEAE headache ([3]; human, in vivo, 2 year): 12.7%
TEAE nasopharyngitis ([3]; human, in vivo, 2 year): 16.8%
TEAE upper respiratory tract infection ([3]; human, in vivo, 2 year): 10.4%
Adverse reaction: C-reactive protein increased ([3]; human, in vivo, 2 years): 1%
Adverse reaction: Cough ([3]; human, in vivo, 2 years): 2%
Adverse reaction: Dizziness ([3]; human, in vivo, 2 years): 3%
Adverse reaction: Dyspnea ([3]; human, in vivo, 2 years): 1%
Adverse reaction: Hepatic transaminase elevation ([3]; human, in vivo, 2 years): 12%
Adverse reaction: Hypercholesterolemia ([3]; human, in vivo, 2 years): 1%
Adverse reaction: Hypertension ([3]; human, in vivo, 2 years): 9%
Adverse reaction: Pain in extremity ([3]; human, in vivo, 2 years): 3%
Adverse reaction: Pyrexia ([3]; human, in vivo, 2 years): 1%
Adverse reaction: Somnolence ([3]; human, in vivo, 2 years): 2%
Adverse reaction: Urinary tract infection ([3]; human, in vivo, 2 years): 5%
Adverse reaction: Vertigo ([3]; human, in vivo, 2 years): 1%
AESI Macular edema ([3]; in vivo): none
Discontinuation reason: Lost to follow-up ([3]; in vivo): (0.5) %
Discontinuation reason: Physician decision ([3]; in vivo): (4.1) %
Discontinuation reason: Physician decision, Lack of efficacy/treatment failure ([3]; in vivo): (1.8) %
Discontinuation reason: Physician decision, Other ([3]; in vivo): (0.7) %
Discontinuation reason: Subject decision ([3]; in vivo): (8.7) %
Discontinuation reason: Subject decision, Efficacy related ([3]; in vivo): (2.5) %
Discontinuation reason: Subject decision, Not known ([3]; in vivo): (0.7) %
Discontinuation reason: Subject decision, Other ([3]; in vivo): (4.6) %
